The term EC50 denotes the midpoint of the concentration-response curve. A lower EC50 goes with higher potency in that assay.
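Further: agonist activity in CHO cells stably expressing hOX2R, intracellular Ca2+ via Calcium 5 dye fluorescence area over 2 min, buffer-only as 0% and 10 nM orexin A as 100%.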

The assay has as its target T1, human orexin type 2 receptor (hOX2R) (Homo sapiens, UniProt O43614).
T1 sequence (O43614 1-444): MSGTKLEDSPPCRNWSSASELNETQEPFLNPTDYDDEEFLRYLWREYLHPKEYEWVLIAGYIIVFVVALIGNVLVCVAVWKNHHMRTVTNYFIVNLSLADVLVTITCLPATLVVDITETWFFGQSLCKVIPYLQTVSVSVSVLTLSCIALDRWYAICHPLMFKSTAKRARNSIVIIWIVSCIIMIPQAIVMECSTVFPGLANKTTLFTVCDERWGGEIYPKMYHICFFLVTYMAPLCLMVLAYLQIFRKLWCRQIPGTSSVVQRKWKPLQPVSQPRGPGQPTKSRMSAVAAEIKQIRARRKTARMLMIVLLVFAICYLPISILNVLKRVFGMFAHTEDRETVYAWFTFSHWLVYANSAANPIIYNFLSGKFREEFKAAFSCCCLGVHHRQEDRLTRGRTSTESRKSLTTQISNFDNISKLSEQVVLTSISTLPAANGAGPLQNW
Briefly: cell-based.
Procedure: Measurement of orexin type 2 receptor agonist activity. […] After removal of the medium, 50 μl of assay buffer 1 (0.1% bovine serum albumin (Sigma Aldrich), 20 mM HEPES (Molecular Dimensions), 250 mM probenecid (Sigma Aldrich), 1× Calcium 5 dye (Molecular Devices) in Hank's balanced salt solution (Invitrogen)) was added, and the cells were incubated for 60 min under the conditions of 37° C., 5% CO2. A test compound was dissolved in dimethyl sulfoxide (Sigma Aldrich) to 10 mM, and then diluted with assay buffer 2 (20 mM HEPES, Hank's balanced salt solution, 0.1% bovine serum albumin). For the reaction, a test compound solution (10 μl) was added using Fluorescent Imaging Plate Reader TETRA (FLIPR TETRA: manufactured by Molecular Devices), a fluorescence value (excitation wavelength 488 nm, measurement wavelength 570 nm) of each well was measured every one second for 2 min, and the agonist activity was determined using the area of the fluorescence value as an indicator of intracellular Ca^2+ concentration. The agonist activity of the test compound was calculated assuming that the fluorescence value of the well added with only the dilution buffer was 0% and the fluorescence value of the well added with 10 nM human orexin A (Tocris) buffer was 100%.
For the molecule `N#C[C@]1(C(=O)N2CC3(CC3)[C@H](NS(=O)(=O)CF)[C@@H]2Cc2cccc(-c3ccccc3)c2F)C[C@H](F)C1` [compound 54, N-((6S,7S)-5-((1r,3S)-1-cyano-3-fluorocyclobutane-1-carbonyl)-6-((2-fluoro-[1,1′-biphenyl]-3-yl)methyl)-5-azaspiro[2.4]heptan-7-yl)-1-fluoromethanesulfonamide], the concentration giving a half-maximal response (EC50) fell in the range of 0.0631 to 1 nM.

Molecule `C[C@@H](F)S(=O)(=O)N[C@@H]1[C@H](Cc2cc(F)cc(-c3ccccc3)c2F)N(C(=O)[C@H]2CCO2)CC12CC2` [compound 55, (S)-N-((6S,7S)-6-((2,5-difluoro-[1,1′-biphenyl]-3-yl)methyl)-5-((R)-oxetane-2-carbonyl)-5-azaspiro[2.4]heptan-7-yl)-1-fluoroethane-1-sulfonamide] showed an EC50 of 1 to 10 nM.

With `C[C@H](F)S(=O)(=O)N[C@@H]1[C@H](Cc2cc(F)cc(-c3ccccc3)c2F)N(C(=O)[C@H]2CCO2)CC12CC2` [compound 56, (R)-N-((6S,7S)-6-((2,5-difluoro-[1,1′-biphenyl]-3-yl)methyl)-5-((R)-oxetane-2-carbonyl)-5-azaspiro[2.4]heptan-7-yl)-1-fluoroethane-1-sulfonamide], the EC50 lay within 0.0631 to 1 nM. For `C[C@@H](F)S(=O)(=O)N[C@@H]1[C@H](Cc2cc(F)cc(-c3cc(F)cc(F)c3)c2F)N(C(=O)[C@H]2CCO2)CC12CC2` [compound 57, (S)-1-fluoro-N-((6S,7S)-5-((R)-oxetane-2-carbonyl)-6-((2,3′,5,5′-tetrafluoro-[1,1′-biphenyl]-3-yl)methyl)-5-azaspiro[2.4]heptan-7-yl)ethane-1-sulfonamide] the value was 1 to 10 nM; for `C[C@H](F)S(=O)(=O)N[C@@H]1[C@H](Cc2cc(F)cc(-c3cc(F)cc(F)c3)c2F)N(C(=O)[C@H]2CCO2)CC12CC2` [compound 58, (R)-1-fluoro-N-((6S,7S)-5-((R)-oxetane-2-carbonyl)-6-((2,3′,5,5′-tetrafluoro-[1,1′-biphenyl]-3-yl)methyl)-5-azaspiro[2.4]heptan-7-yl)ethane-1-sulfonamide], 1 to 10 nM; for `COC1CN(C(=O)N2CC3(CC3)[C@H](NS(=O)(=O)CF)[C@@H]2Cc2cc(F)cc(-c3ccccc3)c2F)C1` [compound 59, N-((6S,7S)-6-((2,5-difluoro-[1,1′-biphenyl]-3-yl)methyl)-5-(3-methoxyazetidine-1-carbonyl)-5-azaspiro[2.4]heptan-7-yl)-1-fluoromethanesulfonamide], 1 to 10 nM. In the case of `C[C@@H](NC(=O)N1CC2(CC2)[C@H](NS(=O)(=O)C(F)F)[C@@H]1Cc1cccc(-c2cc(F)cc(F)c2)c1F)C(F)F` [compound 60, (6S,7S)-7-((difluoromethyl)sulfonamido)-N-((R)-1,1-difluoropropan-2-yl)-6-((2,3′,5′-trifluoro-[1,1′-biphenyl]-3-yl)methyl)-5-azaspiro[2.4]heptane-5-carboxamide], the EC50 is 1 to 10 nM. For `C[C@H](CF)NC(=O)N1CC2(CC2)[C@H](NS(=O)(=O)CF)[C@@H]1Cc1cccc(-c2cc(F)cc(F)c2)c1F` [compound 61, (6S,7S)-7-((fluoromethyl)sulfonamido)-N-((R)-1-fluoropropan-2-yl)-6-((2,3′,5′-trifluoro-[1,1′-biphenyl]-3-yl)methyl)-5-azaspiro[2.4]heptane-5-carboxamide] the value was 0.0631 to 1 nM; for `C[C@H](C#N)C(=O)N1CC2(CC2)[C@H](NS(=O)(=O)CF)[C@@H]1Cc1cccc(-c2cc(F)cc(F)c2)c1F` [compound 62, N-((6S,7S)-5-((R)-2-cyanopropanoyl)-6-((2,3′,5′-trifluoro-[1,1′-biphenyl]-3-yl)methyl)-5-azaspiro[2.4]heptan-7-yl)-1-fluoromethanesulfonamide], 1 to 10 nM; for `C[C@@H](C#N)C(=O)N1CC2(CC2)[C@H](NS(=O)(=O)CF)[C@@H]1Cc1cccc(-c2cc(F)cc(F)c2)c1F` [compound 63, N-((6S,7S)-5-((S)-2-cyanopropanoyl)-6-((2,3′,5′-trifluoro-[1,1′-biphenyl]-3-yl)methyl)-5-azaspiro[2.4]heptan-7-yl)-1-fluoromethanesulfonamide], 1 to 10 nM. Turning to `CO[C@H](C)C(=O)N1CC2(CC2)[C@H](NS(=O)(=O)C(F)F)[C@@H]1Cc1cccc(-c2cc(F)cc(F)c2)c1F` [compound 64, 1,1-difluoro-N-((6S,7S)-5-((R)-2-methoxypropanoyl)-6-((2,3′,5′-trifluoro-[1,1′-biphenyl]-3-yl)methyl)-5-azaspiro[2.4]heptan-7-yl)methanesulfonamide], the EC50 was 1 to 10 nM.

In turn, `CO[C@@H](C)C(=O)N1CC2(CC2)[C@H](NS(=O)(=O)C(F)F)[C@@H]1Cc1cccc(-c2cc(F)cc(F)c2)c1F` [compound 65, 1,1-difluoro-N-((6S,7S)-5-((S)-2-methoxypropanoyl)-6-((2,3′,5′-trifluoro-[1,1′-biphenyl]-3-yl)methyl)-5-azaspiro[2.4]heptan-7-yl)methanesulfonamide] had an EC50 of 1 to 10 nM. The molecule `COC[C@@H](F)C(=O)N1CC2(CC2)[C@H](NS(=O)(=O)C(F)F)[C@@H]1Cc1cccc(-c2cc(F)cc(F)c2)c1F` [compound 66, 1,1-difluoro-N-((6S,7S)-5-((R)-2-fluoro-3-methoxypropanoyl)-6-((2,3′,5′-trifluoro-[1,1′-biphenyl]-3-yl)methyl)-5-azaspiro[2.4]heptan-7-yl)methanesulfonamide] registered a concentration giving a half-maximal response (EC50) of 1 to 10 nM. `CO[C@H](C)C(=O)N1CC2(CC2)[C@H](NS(=O)(=O)CF)[C@@H]1Cc1cccc(-c2cc(F)cc(F)c2)c1F` [compound 68, 1-fluoro-N-((6S,7S)-5-((R)-2-methoxypropanoyl)-6-((2,3′,5′-trifluoro-[1,1′-biphenyl]-3-yl)methyl)-5-azaspiro[2.4]heptan-7-yl)methanesulfonamide] returned an EC50 of 1 to 10 nM.

On to `CO[C@@H](C)C(=O)N1CC2(CC2)[C@H](NS(=O)(=O)CF)[C@@H]1Cc1cccc(-c2cc(F)cc(F)c2)c1F` [compound 69, 1-fluoro-N-((6S,7S)-5-((S)-2-methoxypropanoyl)-6-((2,3′,5′-trifluoro-[1,1′-biphenyl]-3-yl)methyl)-5-azaspiro[2.4]heptan-7-yl)methanesulfonamide], for which the EC50 lay within 0.0631 to 1 nM. Molecule `C[C@@H](C#N)C(=O)N1CC2(CC2)[C@H](NS(=O)(=O)C(F)F)[C@@H]1Cc1cccc(-c2cc(F)cc(F)c2)c1F` [compound 70, N-((6S,7S)-5-((S)-2-cyanopropanoyl)-6-((2,3′,5′-trifluoro-[1,1′-biphenyl]-3-yl)methyl)-5-azaspiro[2.4]heptan-7-yl)-1,1-difluoromethanesulfonamide] displayed an EC50 of 1 to 10 nM. For `CC(C)(F)CNC(=O)N1CC2(CC2)[C@H](NS(=O)(=O)C(F)F)[C@@H]1Cc1cccc(-c2cccc(F)c2)c1F` [compound 71, (6S,7S)-6-((2,3′-difluoro-[1,1′-biphenyl]-3-yl)methyl)-7-((difluoromethyl)sulfonamido)-N-(2-fluoro-2-methylpropyl)-5-azaspiro[2.4]heptane-5-carboxamide] the value was 0.0631 to 1 nM; for `C[C@@](O)(CF)C(=O)N1CC2(CC2)[C@H](NS(=O)(=O)CF)[C@@H]1Cc1cc(F)cc(-c2ccccc2)c1F` [compound 72, N-((6S,7S)-6-((2,5-difluoro-[1,1′-biphenyl]-3-yl)methyl)-5-((S)-3-fluoro-2-hydroxy-2-methylpropanoyl)-5-azaspiro[2.4]heptan-7-yl)-1-fluoromethanesulfonamide], 0.0631 to 1 nM; for `CC(C)(F)CNC(=O)N1CC2(CC2)[C@H](NS(=O)(=O)CF)[C@@H]1Cc1cccc(-c2cccc(F)c2)c1F` [compound 73, (6S,7S)-6-((2,3′-difluoro-[1,1′-biphenyl]-3-yl)methyl)-N-(2-fluoro-2-methylpropyl)-7-((fluoromethyl)sulfonamido)-5-azaspiro[2.4]heptane-5-carboxamide], 1 to 10 nM. `CC(F)(F)CNC(=O)N1CC2(CC2)[C@H](NS(=O)(=O)CF)[C@@H]1Cc1cc(F)cc(-c2ccccc2)c1F` [compound 74, (6S,7S)-6-((2,5-difluoro-[1,1′-biphenyl]-3-yl)methyl)-N-(2,2-difluoropropyl)-7-((fluoromethyl)sulfonamido)-5-azaspiro[2.4]heptane-5-carboxamide] showed an EC50 of 1 to 10 nM. Then `C[C@@](O)(C(=O)N1CC2(CC2)[C@H](NS(=O)(=O)C(F)F)[C@@H]1Cc1cccc(-c2ccccc2)c1F)C1CC1` [compound 75, N-((6S,7S)-5-((S)-2-cyclopropyl-2-hydroxypropanoyl)-6-((2-fluoro-[1,1′-biphenyl]-3-yl)methyl)-5-azaspiro[2.4]heptan-7-yl)-1,1-difluoromethanesulfonamide], with 1 to 10 nM; and `N#CC1(C(=O)N2CC3(CC3)[C@H](NS(=O)(=O)CF)[C@@H]2Cc2cc(F)cc(-c3ccccc3)c2F)CC1` [compound 76, N-((6S,7S)-5-(1-cyanocyclopropane-1-carbonyl)-6-((2,5-difluoro-[1,1′-biphenyl]-3-yl)methyl)-5-azaspiro[2.4]heptan-7-yl)-1-fluoromethanesulfonamide], with 0.0631 to 1 nM; and `CC[C@@](C)(O)C(=O)N1CC2(CC2)[C@H](NS(=O)(=O)C(F)F)[C@@H]1Cc1cccc(-c2cc(F)cc(F)c2)c1F` [compound 77, 1,1-difluoro-N-((6S,7S)-5-((R)-2-hydroxy-2-methylbutanoyl)-6-((2,3′,5′-trifluoro-[1,1′-biphenyl]-3-yl)methyl)-5-azaspiro[2.4]heptan-7-yl)methanesulfonamide], with 0.0631 to 1 nM.

Source of the values: patent US20250100968A1, “BICYCLIC-HETEROCYCLE DERIVATIVES AND RELATED USES” (CENTESSA PHARMACEUTICALS (UK) LIMITED, priority 2022, published 2025).
